Reference: US20200016159A1, “N3-CYCLICALLY SUBSTITUTED THIENOURACILS AND USE THEREOF” (Bayer Aktiengesellschaft, priority 2016, published 2020)

Biological target: T1, human adenosine A2b receptor (Homo sapiens, UniProt P29275)
T1 sequence (P29275 1-332): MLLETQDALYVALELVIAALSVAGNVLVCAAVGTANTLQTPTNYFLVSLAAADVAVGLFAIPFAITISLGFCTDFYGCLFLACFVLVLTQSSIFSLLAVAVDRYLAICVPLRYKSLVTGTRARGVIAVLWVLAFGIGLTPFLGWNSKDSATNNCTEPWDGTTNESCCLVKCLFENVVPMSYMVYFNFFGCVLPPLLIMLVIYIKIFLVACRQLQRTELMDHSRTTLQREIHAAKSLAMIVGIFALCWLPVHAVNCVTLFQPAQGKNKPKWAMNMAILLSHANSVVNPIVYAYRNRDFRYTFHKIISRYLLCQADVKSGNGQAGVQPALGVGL
Experiment: Cellular in vitro reporter gene test for A2b receptor activity (antagonism of NECA)
Assay type: cell-based
Design: expressed in transfected cells; host or cells: CHO-K1 (Chinese hamster ovary) with CRE-luciferase reporter
Details: recombinant CHO-K1 cells, CRE-luciferase reporter, co-incubation with EC50 concentration of NECA, 3 hours
In short: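 Antagonism measured as block of NECA-induced, cAMP/CRE-dependent luciferase expression in recombinant A2b CHO-K1 cells. NECA used at the EC50 set in a pre-experiment on each test day; luminescence detected after 3 h. Reported as IC50, partly averaged and rounded to two significant figures.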

IC50	Compound
2.1 nM	Cc1c(CN2CCNC2=O)sc2c1c(=O)n(C1CC1C)c(=O)n2CCSC(F)(F)F (single isomer, unassigned) [Example 281, 5-Methyl-3-(2-methylcyclopropyl)-6-[(2-oxoimidazolidin-1-yl)methyl]-1-{2-[(trifluoromethyl)sulfanyl]ethyl}thieno[2,3-d]pyrimidine-2,4(1H,3H)-dione]
15 nM	COCCn1c(=O)n(C2(C)CC2)c(=O)c2c(C)c(CN3CCNC3=NC(=O)OC)sc21 [Example 72, Methyl [1-{[1-(2-methoxyethyl)-5-methyl-3-(1-methylcyclopropyl)-2,4-dioxo-1,2,3,4-tetrahydrothieno[2,3-d]pyrimidin-6-yl]methyl}imidazolidine-2-ylidene]carbamate]
270 nM	COCCn1c(=O)n(C2(C(F)(F)F)CC2)c(=O)c2c(C)c(CN3CCNC3=NC#N)sc21 [Example 86, [1-({1-(2-Methoxy ethyl)-5-methyl-2,4-dioxo-3-[1-(trifluoromethyl)cyclopropyl]-1,2,3,4-tetrahydrothieno[2,3-d]pyrimidin-6-yl}methyl)imidazolidin-2-ylidene]cyanamide]
350 nM	CCC1CC1n1c(=O)c2c(C)c(Cn3nc[nH]c3=O)sc2n(CCOC)c1=O (single isomer, unassigned) [Example 304, 3-(2-Ethylcyclopropyl)-1-(2-methoxyethyl)-5-methyl-6-[(5-oxo-4,5-dihydro-H-1,2,4-triazol-1-yl)methyl]thieno[2,3-d]pyrimidine-2,4(1H,3H)-dione]
27 nM	COCCn1c(=O)n(C2CC3(CCC3)C2)c(=O)c2c(C)c(CN3CCNC(=O)C3=O)sc21 [Example 182, 6-[(2,3-Dioxopiperazin-1-yl)methyl]-1-(2-methoxyethyl)-5-methyl-3-(spiro[3.3]hept-2-yl)thieno[2,3-d]pyrimidine-2,4(1H,3H)-dione]
19 nM	Cc1c(CN2CCNC(=O)C2=O)sc2c1c(=O)n(C1CCCC1)c(=O)n2CCC(F)(F)F [Example 187, 3-Cyclopentyl-6-[(2,3-dioxopiperazin-1-yl)methyl]-5-methyl-1-(3,3,3-trifluoropropyl)thieno[2,3-d]pyrimidine-2,4(1H,3H)-dione]
26 nM	Cc1c(CN2CCNC2=O)sc2c1c(=O)n(C1CC1(C)C)c(=O)n2CCCF (racemic) [Example 97, 3-(2,2-Dimethylcyclopropyl)-1-(3-fluoropropyl)-5-methyl-6-[(2-oxoimidazolidin-1-yl)methyl]thieno[2,3-d]pyrimidine-2,4(1H,3H)-dione]
26 nM	COCCn1c(=O)n(C2CC2C)c(=O)c2c(C)c(CN3CCNC3=O)sc21 (single isomer, unassigned) [Example 95, 1-(2-Methoxyethyl)-5-methyl-3-(2-methylcyclopropyl)-6-[(2-oxoimidazolidin-1-yl)methyl]thieno[2,3-d]pyrimidine-2,4(1H,3H)-dione]
150 nM	Cc1c(CN2CCNC2=O)sc2c1c(=O)n(C1CC1C)c(=O)n2CC1CCOC1 (single isomer, unassigned) [Example 292, 5-Methyl-3-(2-methylcyclopropyl)-6-[(2-oxoimidazolidin-1-yl)methyl]-1-(tetrahydrofuran-3-ylmethyl)thieno[2,3-d]pyrimidine-2,4(1H,3H)-dione]
7.2 nM	COCCn1c(=O)n(C2CC2C)c(=O)c2c(C)c(CN3CCNC3=O)sc21 (racemic) [Example 94, 1-(2-Methoxyethyl)-5-methyl-3-(2-methylcyclopropyl)-6-[(2-oxoimidazolidin-1-yl)methyl]thieno[2,3-d]pyrimidine-2,4(1H,3H)-dione]
12 nM	COCCn1c(=O)n(C2CCC2)c(=O)c2c(C)c(Cn3nc[nH]c3=O)sc21 [Example 119, 3-Cyclobutyl-1-(2-methoxyethyl)-5-methyl-6-[(5-oxo-4,5-dihydro-H-1,2,4-triazol-1-yl)methyl]thieno[2,3-d]pyrimidine-2,4(1H,3H)-dione]
160 nM	Cc1c(Cn2nc[nH]c2=O)sc2c1c(=O)n(C1(C)CC1)c(=O)n2CC1CC1(F)F (single isomer, unassigned) [Example 68, 1-[(2,2-Difluorocyclopropyl)methyl]-5-methyl-3-(1-methylcyclopropyl)-6-[(5-oxo-4,5-dihydro-1H-1,2,4-triazol-1-yl)methyl]thieno[2,3-d]pyrimidine-2,4(1H,3H)-dione]
23 nM	CO[C@H]1C[C@@H](n2c(=O)c3c(C)c(CN4CCNC4=O)sc3n(CCC(F)(F)F)c2=O)C1 [Example 154, 3-(cis-3-Methoxycyclobutyl)-5-methyl-6-[(2-oxoimidazolidin-1-yl)methyl]-1-(3,3,3-trifluoropropyl)thieno[2,3-d]pyrimidine-2,4(1H,3H)-dione]
4.1 nM	COCCn1c(=O)n(C2CC2C)c(=O)c2c(C)c(CN3CCNC3=O)sc21 (single isomer, unassigned) [Example 259, 1-(2-Methoxyethyl)-5-methyl-3-(2-methylcyclopropyl)-6-[(2-oxoimidazolidin-1-yl)methyl]thieno[2,3-d]pyrimidine-2,4(1H,3H)-dione]
12 nM	CCCCn1c(=O)n([C@H]2C[C@@H]2C)c(=O)c2c(C)c(Cn3nc[nH]c3=O)sc21 [Example 318, 1-Butyl-5-methyl-3-[(1S,2S)-2-methylcyclopropyl]-6-[(5-oxo-4,5-dihydro-H-1,2,4-triazol-1-yl)methyl]thieno[2,3-d]pyrimidine-2,4(1H,3H)-dione]
44 nM	COCCn1c(=O)n(C2CC2OC)c(=O)c2c(C)c(Cn3nc[nH]c3=O)sc21 (single isomer, unassigned) [Example 311, 3-(2-Methoxycyclopropyl)-1-(2-methoxyethyl)-5-methyl-6-[(5-oxo-4,5-dihydro-H-1,2,4-triazol-1-yl)methyl]thieno[2,3-d]pyrimidine-2,4(1H,3H)-dione]
200 nM	COCCn1c(=O)n([C@H]2C[C@@H](OC)C2)c(=O)c2c(C)c(CN3CCNC3=O)sc21 [Example 159, 3-(cis-3-Methoxycyclobutyl)-1-(2-methoxyethyl)-5-methyl-6-[(2-oxoimidazolidin-1-yl)methyl]thieno[2,3-d]pyrimidine-2,4(1H,3H)-dione]
1.8 nM	Cc1c(CN2CCNC2=O)sc2c1c(=O)n(C1CC1)c(=O)n2CC1CC(F)(F)C1 [Example 204, 3-Cyclopropyl-1-[(3,3-difluorocyclobutyl)methyl]-5-methyl-6-[(2-oxoimidazolidin-1-yl)methyl]thieno[2,3-d]pyrimidine-2,4(1H,3H)-dione]
460 nM	COCCn1c(=O)n(C2(C)CCC2)c(=O)c2c(C)c(CN3CCNC(=O)C3=O)sc21 [Example 142, 6-[(2,3-Dioxopiperazin-1-yl)methyl]-1-(2-methoxyethyl)-5-methyl-3-(1-methylcyclobutyl)thieno[2,3-d]pyrimidine-2,4(1H,3H)-dione]
29 nM	COCCn1c(=O)n(C2(C)CC2)c(=O)c2c(C)c(CN3CCNC(=O)C3=O)sc21 [Example 73, 6-[(2,3-Dioxopiperazin-1-yl)methyl]-1-(2-methoxyethyl)-5-methyl-3-(1-methylcyclopropyl)thieno[2,3-d]pyrimidine-2,4(1H,3H)-dione]
23 nM	CO[C@H]1C[C@H](n2c(=O)c3c(C)c(CN4CCNC4=NC#N)sc3n(CCC(F)(F)F)c2=O)C1 [Example 145, [1-{[3-(trans-3-Methoxycyclobutyl)-5-methyl-2,4-dioxo-1-(3,3,3-trifluoropropyl)-1,2,3,4-tetrahydrothieno[2,3-d]pyrimidin-6-yl]methyl}imidazolidin-2-ylidene]cyanamide]
11 nM	Cc1c(CN2CCNC2=O)sc2c1c(=O)n(C1CC1C)c(=O)n2CCF (single isomer, unassigned) [Example 233, 1-(2-Fluoroethyl)-5-methyl-3-(2-methylcyclopropyl)-6-[(2-oxoimidazolidin-1-yl)methyl]thieno[2,3-d]pyrimidine-2,4(1H,3H)-dione]
25 nM	Cc1c(Cn2nc[nH]c2=O)sc2c1c(=O)n(C1CC1)c(=O)n2CC1CCC1 [Example 18, 1-(Cyclobutylmethyl)-3-cyclopropyl-5-methyl-6-[(5-oxo-4,5-dihydro-1H-1,2,4-triazol-1-yl)methyl]thieno[2,3-d]pyrimidine-2,4(1H,3H)-dione]
12 nM	Cc1c(CN2CCNC2=S)sc2c1c(=O)n(C1CC1)c(=O)n2CCCF [Example 6, 3-Cyclopropyl-1-(3-fluoropropyl)-5-methyl-6-[(2-thioxoimidazolidin-1-yl)methyl]thieno[2,3-d]pyrimidine-2,4(1H,3H)-dione]
54 nM	CCc1c(CN2CCNC2=O)sc2c1c(=O)n(C1(C)CC1)c(=O)n2CCC(F)(F)F [Example 218, 5-Ethyl-3-(1-methylcyclopropyl)-6-[(2-oxoimidazolidin-1-yl)methyl]-1-(3,3,3-trifluoropropyl)thieno[2,3-d]pyrimidine-2,4(1H,3H)-dione]
110 nM	CCC1(n2c(=O)c3c(C)c(CN4CCNC4=O)sc3n(CCOC)c2=O)CC1 [Example 108, 3-(1-Ethylcyclopropyl)-1-(2-methoxyethyl)-5-methyl-6-[(2-oxoimidazolidin-1-yl)methyl]thieno[2,3-d]pyrimidine-2,4(1H,3H)-dione]
16 nM	COCCn1c(=O)n(C2CC2C(F)(F)F)c(=O)c2c(C)c(CN3CCNC3=O)sc21 (single isomer, unassigned) [Example 296, 1-(2-Methoxyethyl)-5-methyl-6-[(2-oxoimidazolidin-1-yl)methyl]-3-[2-(trifluoromethyl)cyclopropyl]thieno[2,3-d]pyrimidine-2,4(1H,3H)-dione]
